Data from US5629007A, “Method of preventing prostatic cancer development” (priority 1995, dated 1997).

Biological target: T1, Human Type I Steroid 5α-Reductase (Homo sapiens, UniProt P18405)
T1 construct: Scalp punch biopsies from graft recipient sites were obtained; from tissue; host or cells: human scalp punch biopsies (hair transplant graft recipient sites), homogenate, resuspended 100,000×g pellet
T1 sequence (P18405 1-259): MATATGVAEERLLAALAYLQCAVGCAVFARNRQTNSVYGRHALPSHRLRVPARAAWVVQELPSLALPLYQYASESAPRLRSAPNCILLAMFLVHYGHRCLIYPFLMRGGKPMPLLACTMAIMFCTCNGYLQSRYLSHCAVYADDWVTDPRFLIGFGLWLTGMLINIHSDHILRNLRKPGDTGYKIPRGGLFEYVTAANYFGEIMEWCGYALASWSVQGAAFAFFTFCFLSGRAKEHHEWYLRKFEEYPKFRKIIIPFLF
Test: Human 5α-Reductase Homogenate Assay (Type I, human scalp): conversion of [3H]-testosterone to 5α-reduced metabolites
Assay type: biochemical
Details: 0.3 μM test compound, compared to control reaction mixtures; 50 nM [3H]-testosterone, pH 7.5, 25°, 180 min
Description: Methodology of Human Type I Steroid 5α-Reductase Assays
Approximately 60-75 punches from one surgical procedure were used to generate an enzyme preparation. The subcutaneous tissue was cut away and discarded. The skin was frozen with liquid nitrogen and pulverized to powder. […] The homogenization procedure consisted of four 15 second pulses. Connective tissue was cleared from the probe with forceps between pulses. […] The pellet was resuspended by homogenization with a Dounce homogenizer using the same buffer solution. An aliquot was taken for protein determination by the Lowry method, Lowry, et al., Protein Measurement with the Folin Phenol Reagent, J. Biol. Chem., 193, 265-75 (1951). Aliquots of the enzyme preparation were stored at -80° until use.
The reaction was initiated by the addition of 0.5 mg of Type I 5α-reductase. The reaction mixture was incubated at 25° for 180 min, and terminated by the addition of 1 mL ice-cold stopping solution. […] The samples were prepared for high performance liquid chromatography by solid phase extraction. […] The reaction mixtures were then applied to the columns. The columns were subsequently washed with 5 mL of acetone:water (1:4), followed by 0.3 mL of methanol. The samples were then eluted with 3 mL of methanol and collected in 20 mL scintillation vials. […] The column temperature was maintained at 35° and the flow rate was 1.5 mL/min.

Compound | percent inhibition of Type I 5AR [%]
CN1C(=O)CC[C@]2(C)c3ccc(Sc4nc5c(ccc6ccccc65)s4)cc3CC[C@@H]12 [Example 163, (+)-(4aR)-(10bR)-4-methyl-8-(2-naphtho<1,2-d>-thiazolylthio)-10b-methyl-1,2,3,4,4a,5,6,10b-octahydrobenzo[f]-quinolin-3-one] | 80
CN1C(=O)CC[C@]2(C)c3ccc(C=Cc4ccccc4)cc3CC[C@@H]12 [Example 285, (4aR)-(10bR)-4,10b-dimethyl-8-(2-phenylethenyl)-1,2,3,4,4a,5,6,10b-octahydrobenzo[f]quinolin-3-one] | 93

Results, then the compound that gave them:

percent inhibition of Type I 5AR [%] | Compound
11 | C[C@]12CCC(=O)N[C@@H]1CCc1cc(-c3cnc4ccccc4c3)ccc12 [Example 196, (+)-(4aR)-(10bR)-8-(3-quinolinyl)-10b-methyl-1,2,3,4,4a,5,6,10b-octahydrobenzo[f]quinolin-3-one]
86 | CN1C(=O)CC[C@]2(C)c3ccc(-c4ccc(-c5ccc(NC(=O)C(C)(C)C)s5)cc4)cc3CC[C@@H]12 [Example 222, (+)-(4aR)-(10bR)-4-methyl-8-(4-[(2-t-butylcarbonylamino]-5-thienyl]phenyl)-10b-methyl-1,2,3,4,4a,5,6,10b-octahydrobenzo[f]quinolin-3-one]
90 | (+)-(4aR)-(10bR)-4-methyl-8-benzyloxycarbonyl-10b-methyl-1,2,3,4,4a,5,6,10b-octahydrobenzo[f]quinolin-3-one [Example 144]
